Results reported in patent publication EP1801112A1, “Bicyclic pyrimidines and bicyclic 3,4-dihydropyrimidines as inhibitors of cellular proliferation” (Warner-Lambert Company LLC, priority 1998, dated 1999).
Where two headings read alike, the source gives them in different places.

What was measured:
cdk4/D = cdk4/D (Homo sapiens, UniProt P11802); test: Cyclin-Dependent Kinase 4 (cdk4) Assay; format: biochemical
Method: A typical assay, for instance, measures inhibitory activity against the cyclin D dependent kinase 4 enzyme (cdk4/D). […] The cdk4 assay was carried out as follows.
Cyclin-Dependent Kinase 4 (cdk4) Assay
Enzyme assays for IC50 determinations (Tables 1 and 2) and kinetic evaluation were performed in 96 well filter plates (Millipore MADVN6550). The total volume was 0.1 mL containing a final concentration of 20 mM TRIS (tris[hydroxymethyl]aminomethane), at pH 7.4, 50 mM NaCl, 1 mM dithiothreitol, 10 mM MgCl2, 25 µM ATP containing 0.25 µCi of [^32P]ATP, 20 ng of cdk4, 1 µg of retinoblastoma, and appropriate dilutions of a compound of the present invention. All components except the ATP were added to the wells, and the plate was placed on a plate mixer for 2 minutes. The reaction was started by adding [^32P]ATP and the plate was incubated at 25°C for 15 minutes. The reaction was terminated by addition of 0.1 mL of 20% trichloroacetic acid (TCA). The plate was kept at 4°C for at least 1 hour to allow the substrate to precipitate. The wells were then washed five times with 0.2 mL of 10% TCA and ^32P incorporation was determined with a beta plate counter (Wallac Inc., Gaithersburg, MD).

[1] = molecular target: T1, FGF-1 (flg) receptor tyrosine kinase (Homo sapiens, UniProt P11362); test: FGF Receptor Tyrosine Kinase Assay; format: biochemical; settings: glutamate-tyrosine co-polymer substrate, 50 µM ATP
T1 construct: amplify a fragment of DNA that codes for the intracellular tyrosine kinase domain; made in house; host or cells: SF9 insect cells (baculovirus); crude cell lysate used
T1 sequence (P11362 478-767 limits assumed): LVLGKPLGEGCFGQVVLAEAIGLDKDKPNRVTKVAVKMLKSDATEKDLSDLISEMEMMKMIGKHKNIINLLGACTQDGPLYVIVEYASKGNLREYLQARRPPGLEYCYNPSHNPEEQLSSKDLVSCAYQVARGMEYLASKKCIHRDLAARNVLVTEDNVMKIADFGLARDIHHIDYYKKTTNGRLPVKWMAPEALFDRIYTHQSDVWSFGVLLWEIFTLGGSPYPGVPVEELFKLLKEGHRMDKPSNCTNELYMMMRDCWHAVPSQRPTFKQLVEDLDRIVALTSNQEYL
Method: PDGF and FGF Receptor Tyrosine Kinase Assays
PCR primers were designed to amplify a fragment of DNA that codes for the intracellular tyrosine kinase domain. The fragment was inserted into a baculovirus vector, cotransfected with AcMNPV DNA, and the recombinant virus isolated. SF9 insect cells were infected with the virus to overexpress the protein, and the cell lysate was used for the assay. Assays were performed in 96-well plates (100 µL/incubation/well), and conditions were optimized to measure the incorporation of ^32P from γ^32P-ATP into a glutamate-tyrosine co-polymer substrate. Briefly, to each well was added 82.5 µL of incubation buffer containing 25 mM Hepes (pH 7.0), 150 mM NaCl, 0.1% Triton X-100, 0.2 mM PMSF, 0.2 mM Na3VO4, 10 mM MnCl2, and 750 µg/mL of Poly (4:1) glutamate-tyrosine followed by 2.5 µL of inhibitor and 5 µL of enzyme lysate (7.5 µg/µL FGF-TK or 6.0 µg/µL PDGF-TK) to initiate the reaction. […] The reaction was terminated by the addition of 100 µL of 30% trichloroacetic acid (TCA) containing 20 mM sodium pyrophosphate and precipitation of material onto glass fiber mats (Wallac). […] Nonspecific activity was defined as radioactivity retained on the filters following incubation of samples with buffer alone (no enzyme). Specific enzymatic activity (enzyme plus buffer) was defined as total activity minus nonspecific activity. […]

c-Src = molecular target: T2, c-Src (Homo sapiens, UniProt P12931); test: c-Src protein kinase assay; format: biochemical; settings: poly GluTyr substrate, 5 µM ATP
T2 construct: made in house; host or cells: baculovirus infected insect cells
T2 sequence (P12931 whole entry): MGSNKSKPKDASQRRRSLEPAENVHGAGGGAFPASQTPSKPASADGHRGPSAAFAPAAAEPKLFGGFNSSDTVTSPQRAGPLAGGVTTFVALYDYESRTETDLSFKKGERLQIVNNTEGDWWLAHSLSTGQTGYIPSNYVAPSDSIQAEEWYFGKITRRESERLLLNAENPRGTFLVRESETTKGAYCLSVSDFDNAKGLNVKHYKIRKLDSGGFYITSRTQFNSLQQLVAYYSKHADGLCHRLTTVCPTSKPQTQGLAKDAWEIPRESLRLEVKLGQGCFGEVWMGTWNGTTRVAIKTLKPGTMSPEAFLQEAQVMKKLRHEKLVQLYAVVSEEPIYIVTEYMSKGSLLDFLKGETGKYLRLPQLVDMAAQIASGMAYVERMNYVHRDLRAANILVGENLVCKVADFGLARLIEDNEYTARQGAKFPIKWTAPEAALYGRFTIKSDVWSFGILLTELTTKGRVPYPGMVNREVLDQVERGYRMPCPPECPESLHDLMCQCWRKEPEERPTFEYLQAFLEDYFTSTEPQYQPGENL
Method: The assay was carried out as follows: c-Src kinase was purified from baculovirus infected insect cell lysates using an antipeptide monoclonal antibody directed against the N-terminal amino acids (amino acids 2-17) of c-Src. The antibody, covalently linked to 0.65 µm latex beads, was added to a suspension of insect cell lysis buffer comprised of 150 mM NaCl, 50 mM Tris pH 7.5, 1 mM DTT, 1% NP-40, 2 mM EGTA, 1 mM sodium vanadate, 1 mM PMSF, 1 µg/mL each of leupeptin, pepstatin, and aprotinin. Insect cell lysate containing c-Src protein was incubated with these beads for 3 to 4 hours at 4°C with rotation. At the end of the lysate incubation, the beads were rinsed three times in lysis buffer, resuspended in lysis buffer containing 10% glycerol, and frozen. These latex beads were thawed, rinsed three times in assay buffer (40 mM Tris, pH 7.5, […]) and suspended in the same buffer. In a Millipore 96-well plate with a 0.65 µm polyvinylidine membrane bottom were added the reaction components: 10 µL c-Src beads, 10 µL of 2.5 mg/mL poly GluTyr substrate, 5 µM ATP containing 0.2 µCi labeled ^32P-ATP, 5 µL DMSO containing inhibitors or as a solvent control, and buffer to make the final volume 125 µL. The reaction was started at room temperature by addition of the ATP and quenched 10 minutes later by the addition of 125 µL of 30% TCA, 0.1 M sodium pyrophosphate for 5 minutes on ice. […] The filters were then punched, counted in a liquid scintillation counter, and the data examined for inhibitory activity in comparison to a known inhibitor such as erbstatin. […]

cdk2/cyclinA = cdk2/cyclinA (Homo sapiens, UniProt P24941); test: Cyclin-Dependent Kinase Assay cdk2/cyclinA; format: biochemical
Method: (§1) Cyclin-Dependent Kinase Assays (cdk2/cyclinE, cdk2/cyclinA, cdc2/cyclinB)
(§2) All components except the ATP were added to the wells, and the plate was placed on a plate mixer for 2 minutes. The reaction was begun by addition of [^32P]ATP, and the plate was incubated at 25°C for 15 minutes. The reaction was terminated by addition of 0.1 mL of 20% TCA. The plate was kept at 4°C for at least 1 hour to allow the substrate to precipitate. The wells were then washed five times with 0.2 mL of 10% TCA and ^32P incorporation determined with a beta plate counter (Wallac Inc., Gaithersburg, MD).

cdc2/cyclinB = cdc2/cyclinB (Homo sapiens, UniProt P06493); test: Cyclin-Dependent Kinase Assay cdc2/cyclinB; format: biochemical
cdc2/cyclinB, sequence (P06493 whole entry): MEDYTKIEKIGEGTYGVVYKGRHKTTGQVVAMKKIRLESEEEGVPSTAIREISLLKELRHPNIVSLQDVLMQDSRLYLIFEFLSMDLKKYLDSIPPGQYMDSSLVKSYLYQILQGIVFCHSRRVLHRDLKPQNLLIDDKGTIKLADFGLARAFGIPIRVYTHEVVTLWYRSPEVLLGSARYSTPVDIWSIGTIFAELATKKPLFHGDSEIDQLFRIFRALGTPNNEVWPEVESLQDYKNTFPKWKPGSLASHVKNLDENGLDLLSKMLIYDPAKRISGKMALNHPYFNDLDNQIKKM
cdc2/cyclinB, sequence (P14635 whole entry, further chain): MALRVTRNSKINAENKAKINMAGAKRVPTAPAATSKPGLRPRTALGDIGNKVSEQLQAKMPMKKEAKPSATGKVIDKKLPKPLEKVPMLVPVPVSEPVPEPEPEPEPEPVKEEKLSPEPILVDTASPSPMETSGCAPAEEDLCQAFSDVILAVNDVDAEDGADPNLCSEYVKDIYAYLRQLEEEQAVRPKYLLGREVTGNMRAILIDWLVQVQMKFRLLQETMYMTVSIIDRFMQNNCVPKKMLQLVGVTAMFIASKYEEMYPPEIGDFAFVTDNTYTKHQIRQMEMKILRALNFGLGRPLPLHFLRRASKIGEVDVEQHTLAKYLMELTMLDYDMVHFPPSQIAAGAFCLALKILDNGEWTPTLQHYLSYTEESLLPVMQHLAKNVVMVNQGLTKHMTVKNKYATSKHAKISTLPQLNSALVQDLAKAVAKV
Method: as §1, §2

cdk2/cyclinE = cdk2/cyclinE (Homo sapiens, UniProt P24941); test: Cyclin-Dependent Kinase Assay cdk2/cyclinE; format: biochemical
Method: as §1, §2

[2] = test system: human umbilical vein endothelial cells; test: Human Umbilical Vein Endothelial Cell (HUVEC) Proliferation Assay; format: cell-based; settings: 96 h, four days incubation, Sulphorhodamine B staining
Method: The compounds of Formula I are useful for treating cell proliferative disorders concerning angiogenesis and have been evaluated in a human umbilical vein endothelial cell in vitro assay. The assay described below is used to determine the anti-proliferative effects of the invention compounds on human umbilical vein endothelial cells, and the results are shown in Table 7.
Human Umbilical Vein Endothelial Cell (HUVEC) Proliferation Assay
Ninety-six well tissue culture plates are seeded with 100 µL of cells in all wells of rows A->G with row H remaining empty as a blank. HUVEC (Clonetics, San Diego, CA) are grown in endothelial growth medium (EGM media, Clonetics), containing 2% fetal bovine serum. The cell seed density for HUVEC cells is 20,000 per mL. C6 cells (ATCC Cat. No. CCL-107) are seeded at 6000 per mL in F10 medium (nutrient mixture Hemes) supplemented with 15% horse serum, 2.5% fetal bovine serum, and 6.0 mL 200 mM Glutamine per 600 mL medium. A90 cells (Suny, Buffalo, NY) are also seeded at 6000 per mL, but they are grown in RPMI 1640 (Roswell Park Memorial Institute) plus 10% fetal bovine serum. Unless noted otherwise, tissue culture media and components are from GIBCO. The cells are allowed to incubate at 37°C, 5% CO2, and 100% relative humidity for 16-24 hours.
Invention compounds are prepared by dissolving them in DMSO at a concentration of 5 mM, followed by dilution to 50 µM in EGM media. One hundred microliters of the compounds are applied to duplicate wells in column 1 of the previously prepared cell plates. Column 1 row H receives 100 µL of EGM media. The compounds in column 1 are diluted across the plates using serial twofold dilutions.
The plates are incubated as above for an additional four days before being stained with Sulphorhodamine B. Staining is performed as follows: The media is removed from the plates, and the cells are fixed using 10% trichloroacetic acid for 30 minutes at 4°C. Following fixation, the plates are washed five times with distilled water after which 100 µL of Sulphorhodamine B is added to each well. Sulphorhodamine B is dissolved in 1% acetic acid to a concentration of .075%. Following staining, excess stain is removed from the wells, and the plates are washed four times with 1% acetic acid. The plates are allowed to air dry before the bound dye is solubilized in 100 µL of 10 mM unbuffered TRIS base. Absorbance is measured on a 96 well plate reader at […] using a reference filter wavelength of 630 nm. […] Sulphorhodamine B and TRIS are from Sigma Chemical Company. Acetic acid and trichloroacetic acid are from Mallinckrodt AR.

[3] = 25 µM ATP, retinoblastoma substrate, read-out: IC50 (µM) cdk4/D

cdk4/D, sequence (P11802 whole entry): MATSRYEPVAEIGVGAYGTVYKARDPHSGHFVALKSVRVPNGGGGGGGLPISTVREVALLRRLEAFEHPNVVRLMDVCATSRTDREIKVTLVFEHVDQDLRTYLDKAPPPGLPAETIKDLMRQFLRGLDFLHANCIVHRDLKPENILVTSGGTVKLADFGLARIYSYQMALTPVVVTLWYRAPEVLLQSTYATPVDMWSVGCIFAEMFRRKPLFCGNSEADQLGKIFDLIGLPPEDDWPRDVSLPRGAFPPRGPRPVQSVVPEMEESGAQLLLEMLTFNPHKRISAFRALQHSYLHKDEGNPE
cdk4/D, sequence (P24385 whole entry, further chain): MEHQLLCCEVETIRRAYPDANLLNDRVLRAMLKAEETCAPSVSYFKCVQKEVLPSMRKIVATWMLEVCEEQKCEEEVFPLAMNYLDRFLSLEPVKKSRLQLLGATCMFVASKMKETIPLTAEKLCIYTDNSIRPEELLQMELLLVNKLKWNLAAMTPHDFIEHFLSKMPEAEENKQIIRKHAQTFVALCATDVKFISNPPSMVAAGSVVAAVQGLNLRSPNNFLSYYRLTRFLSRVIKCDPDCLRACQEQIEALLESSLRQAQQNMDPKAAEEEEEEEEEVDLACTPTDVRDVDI

SMILES: O=C1NCc2cnc(Nc3ccc(N4CCCCC4)cc3)nc2N1C1CCCC1 [Example 10, 1-Cyclopentyl-7-[4-(piperidin-1-yl)phenylamino]-3,4-dihydropyrimido[4,5-d]pyrimidin-2(1H)-one]
- IC50 (cdk4/D; [3]): 1.55 µM
- IC50 [1]: 0.64 µM
- IC50 (c-Src): > 50 µM

SMILES: O=C1NCc2cnc(Nc3ccc(-n4cccc4)cc3)nc2N1C1CCCC1 [Example 14, 1-Cyclopentyl-7-[4-(pyrrol-1-yl)phenylamino]-3,4-dihydropyrimido[4,5-d]pyrimidin-2(1H)-one]
- IC50 (cdk4/D): 17.8 µM
- IC50 (cdk2/cyclinA): 5.1 µM
- IC50 (cdc2/cyclinB): > 20 µM
- IC50 (c-Src): > 50 µM

SMILES: O=C1NCc2cnc(Nc3ccc(N4CCC(O)CC4)cc3)nc2N1C1CCCC1 [Example 15, 1-Cyclopentyl-7-[4-(4-hydroxypiperidin-1-yl)phenylamino]-3,4-dihydropyrimido[4,5-d]pyrimidin-2(1H)-one]
- IC50 (cdk4/D; [3]): 0.7 µM
- IC50 (cdk2/cyclinE; retinoblastoma substrate, read-out: IC50 (µM) cdk2/E): 2.2 µM
- IC50 (cdk2/cyclinA; retinoblastoma substrate, read-out: IC50 (µM) cdk2/A): 0.6 µM
- IC50 (cdc2/cyclinB; retinoblastoma substrate, read-out: IC50 (µM) cdkl/B): 16.8 µM
- IC50 [1]: 0.05 to 0.5 µM
- IC50 (c-Src): 2.4 µM

SMILES: O=C1NCc2cnc(Nc3ccc(N4CCCCC4CO)cc3)nc2N1C1CCCC1 (stereo not shown) [Example 19, 1-Cyclopentyl-7-[4-(2-hydroxymethylpiperidin-1-yl)phenylamino]-3,4-dihydro-pyrimido[4,5-d]pyrimidin-2(1H)-one]
- IC50 (cdk4/D): 0.5 µM
- IC50 [1]: 0.05 to 0.5 µM
- IC50 (c-Src): 4.42 µM

SMILES: CC(C)N1C(=O)NCc2cnc(Nc3ccc(N4CCN(C)CC4)cc3)nc21 [Example 22, 1-Isopropyl-7-[4-(4-methylpiperazin-1-yl)phenylamino]-3,4-dihydropyrimido[4,5-d]pyrimidin-2(1H)-one]
- IC50 (cdk4/D): 0.34 µM
- IC50 (cdk2/cyclinA): 9.31 µM
- IC50 (c-Src): 1.51 µM

SMILES: CC(C)n1c(=O)ncc2cnc(Nc3ccc(N4CCN(C)CC4)cc3)nc21 [Example 40, 1-Isopropyl-7-[4-(4-methylpiperazin-1-yl)phenylamino]pyrimido[4,5-d]pyrimidin-2(1H)-one]
- IC50 (cdk2/cyclinE): 16.5 µM
- IC50 (cdk2/cyclinA): 4.51 µM
- IC50 [1]: 1.13 µM
- IC50 (c-Src): 4.3 µM

SMILES: CCN(CC)CCCCNc1ncc2c(n1)NC(=O)N(c1cc(OC)cc(OC)c1)C2 [Example 52, 7-(4-Diethylamino-butylamino)-3-(3,5-dimethoxy-phenyl)-3,4-dihydropyrimido[4,5-d]pyrimidin-2(1H)-one]
- IC50 [2]: 6.65 µM

SMILES: COc1cc(OC)cc(N2Cc3cnc(NCCNCc4ccncc4)nc3NC2=O)c1 [Example 54, 3-(3,5-Dimethoxy-phenyl)-7-{2-[(pyridin-4-ylmethyl)-amino]-ethylamino}-3,4-dihydro-pyrimido[4,5-d]pyrimidin-2(1H)-one]
- IC50 [2]: > 25 µM

SMILES: COc1cc(OC)cc(N2Cc3cnc(NCCCN4CCN(C)CC4)nc3NC2=O)c1 [Example 54a, 3-(3,5-Dimethoxy-phenyl)-7-[3-(4-methyl-piperazin-1-yl)-propylamino]-3,4-dihydro-1H-pyrimido[4,5-d]pyrimidin-2(1H)-one]
- IC50 [2]: 5.99 µM

SMILES: COc1cc(OC)cc(N2Cc3cnc(NCCCCN4CCN(C)CC4)nc3NC2=O)c1 [Example 54b, 3-(3,5-Dimethoxy-phenyl)-7-[4-(4-methyl-piperazin-1-yl)-butylamino]-3,4-dihydro-pyrimido[4,5-d]pyrimidin-2(1H)-one]
- IC50 [2]: 4.96 µM

SMILES: COc1cc(OC)cc(N2Cc3cnc(NCCCCCN4CCN(C)CC4)nc3NC2=O)c1 [Example 54c, 3-(3,5-Dimethoxy-phenyl)-7-[5-(4-methyl-piperazin-1-yl)-pentylamino]-3,4-dihydro-pyrimido[4,5-d]pyrimidin-2(1H)-one]
- IC50 [2]: 5.78 µM

SMILES: CCN(CC)CCCNc1ncc2c(n1)NC(=O)N(c1cc(OC)cc(OC)c1)C2 [Example 55, 7-(3-Diethylamino-propylamino)-3-(3,5-dimethoxy-phenyl)-3,4-dihydropyrimido[4,5-d]pyrimidin-2(1H)-one]
- IC50 [2]: > 25 µM

SMILES: CCN1C(=O)N(c2cc(OC)cc(OC)c2)Cc2cnc(NCCNCc3ccncc3)nc21 [Example 56, 3-(3,5-Dimethoxy-phenyl)-1-ethyl-7-{2-[(pyridin-4-ylmethyl)-amino]-ethylamino}-3,4-dihydro-pyrimido[4,5-d]pyrimidin-2(1H)-one]
- IC50 [2]: 1.93 µM

SMILES: CCN1C(=O)N(c2cc(OC)cc(OC)c2)Cc2cnc(NCCCN3CCN(C)CC3)nc21 [Example 57, 3-(3,5-Dimethoxy-phenyl)-1-ethyl-7-[3-(4-methyl-piperazin-1-yl)-propylamino]-3,4-dihydro-pyrimido[4,5-d]pyrimidin-2(1H)-one]
- IC50 [2]: 0.152 µM
